Data taken from US9802982B2, “Peptide and uses thereof” (Tunghai University, priority 2014, dated 2017).
Converted amounts (≈) assume the structure as drawn. Where two headings read alike, the source gives them in different places. Where a SMILES comes first, the peptide text is derived from it. Where no end group is shown, it is not given here. [ ]: non-standard residue; d: D form. NMeW = CN[C@@H](Cc1c[nH]c2ccccc12)C(=O)O; NMeR = CN[C@@H](CCCNC(=N)N)C(=O)O

Columns and labels:
Format in all cases: cell-based
human red blood cells = test: Hemolysis assay
Protocol: 1-3 mL human blood was centrifuged at 3000 rpm, 4° C. for 10 minutes. The supernatant was discarded. The remaining was washed with cold phosphate buffer saline (PBS) and centrifuged at 3000 rpm, 4° C. for 1 minute. The supernatant was discarded. The remaining red blood cells were washed and diluted as 2% red blood cell solution with cold PBS.
A mixture of 100 μL red blood cell solution and 100 μL PBS was served as a negative control. A mixture of 100 μL red blood cells solution and 100 μL 0.2% Triton X-100 was served as a positive control. The solution of peptide 1, peptide 2, peptide 3, peptide 5, and peptide 6 were respectively mixed with red blood cell solution with the same volume and incubated at 37° C. for 1 hour. After incubation, the mixture was centrifuged at 3000 rpm, 4° C. for 10 minutes. Each of the supernatant was collected to measure the absorbance at wavelength of 405 nm by an ELISA plate reader. The hemolysis of each peptide was calculated according to the following equation, wherein Abs represents the absorbance. [(Abspeptide−AbsPBS)/(AbsTriton X-100−AbsPBS)]×100

[1] = test system: Staphylococcus aureus (ATCC25923)
Protocol: (§1) Three bacteria strains, Escherichia coli (ATCC 25922), Staphylococcus aureus (ATCC25923), and Pseudomon asaeruginosa (ATCC27853) were brought from the Food Industry Research and Development Institute, Hsinchu, Taiwan.
(§2) Each of the strain (0.1-0.2 mL) was inoculated on an agar gel medium (Merck, Whitehouse, Station, N.J., USA) and isolated into single colony by streak plate method. Each of the strain was spread evenly by a sterile L-shaped glass rod and incubated overnight. After that, the single colony on each agar gel medium was transferred to liquid LB medium (Merck, Whitehouse, Station, N.J., USA) and incubated at 37° C. in an incubator.
(§3) Each bacteria strain from example 6 was incubated to its mid-log phase at 37° C. in 2 mL Lysogeny broth (LB) in an incubator, wherein the mid-log phase of Escherichia coli is 4 hours, the mid-log phase of Staphylococcus aureus is 6 hours, and the mid-log phase of Pseudomonas aeruginosa is 8 hours. According to 0.5 McFarland Standard, the number of bacteria in a broth is 1×10^8 CFU/mL when the OD595 is 0.08-0.09. […] And then, the number of bacteria in each broth was diluted from 1×10^8 CFU/mL to […]. Finally, each broth has bacterial number of 5×10^5 CFU/mL in Mueller Hinton broth (MHB).
(§4) 199 μL of each of the foresaid diluted broth was respectively placed into a 96 well plate, and 1 μL of each peptide from example 5 was added into each well to incubate at 37° C. in an incubator for 16 hours. The OD595 of the coculture of each broth and each peptide was measured by a microplate spectrophotometer. In addition, the bacterial broth without the peptide served as positive control (PC), and the free broth MHB culture medium served as negative control (NC). The minimum inhibitory concentration (MIC90) of each peptide against each bacteria was measured according to the following equation, wherein A is the absorbance. MIC90≦[(Apeptide−ANC)(APC−ANC)]

[2] = test system: Escherichia coli (ATCC 25922)
Protocol: as §1, §2, §3, §4

[3] = test system: Pseudomonas aeruginosa (ATCC27853)
Protocol: as §1, §2, §3, §4

[4] = test system: Staphylococcus aureus (ATCC25923); remark: listed apart in the source
Protocol: as §1, §2, §3, §4
(§5) In addition, to measure the minimum bactericidal concentration (MBC), 1 μL of each broth cocultured with the peptide was sprayed on a flat plate medium at 37° C. in an incubator for 24 hours. If the incubation result has no bacteria, the concentration of the reagent is MBC.

[5] = test system: Escherichia coli (ATCC 25922); remark: listed apart in the source
Protocol: as §1, §2, §3, §4, §5

[6] = test system: Pseudomonas aeruginosa (ATCC27853); remark: listed apart in the source
Protocol: as §1, §2, §3, §4, §5

[7] = 5×10^5 CFU/mL in MHB, 37° C., 16 hours, OD595
[8] = coculture plated on flat plate medium, 37° C., 24 hours, no bacteria

Triton X-100 [Positive control, reference compound]
Hemolysis (%) (human red blood cells): 100%

KWLRRVWRWWR-NH2 [peptide 6, KWLRRVWRWWR]
Minimum inhibitory concentration (MIC90) Staphylococcus aureus ([1]; ATCC25923, 16 h): 5 µM | Minimum inhibitory concentration (MIC90) Escherichia coli ([2]; ATCC 25922, 16 h): 5 µM | Minimum inhibitory concentration (MIC90) Pseudomonas aeruginosa ([3]; ATCC27853, 16 h): 5 µM | Minimum bactericidal concentration (MBC99.9) Staphylococcus aureus ([4]; ATCC25923, 24 h): 10 µM | Minimum bactericidal concentration (MBC99.9) Escherichia coli ([5]; ATCC 25922, 24 h): 5 µM | Minimum bactericidal concentration (MBC99.9) Pseudomonas aeruginosa ([6]; ATCC27853, 24 h): 5 µM | Hemolysis (%) (human red blood cells; red cells of human, 1 h): 70.7%

CC(C)C[C@H](NC(=O)[C@H](CCCNC(=N)N)NC(=O)[C@@H](N)CCCCN)C(=O)N[C@@H](CCCNC(=N)N)C(=O)N[C@@H](CCCNC(=N)N)C(=O)N[C@H](C(=O)N(C)[C@@H](Cc1c[nH]c2ccccc12)C(=O)N[C@@H](CCCNC(=N)N)C(=O)N[C@@H](Cc1c[nH]c2ccccc12)C(=O)N[C@@H](Cc1c[nH]c2ccccc12)C(=O)N[C@@H](CCCNC(=N)N)C(N)=O)C(C)C [peptide 4, KRLRRVMeWRWWR] (H-KRLRRV[NMeW]RWWR-NH2; N-terminus assumed)
Minimum inhibitory concentration (MIC90) Staphylococcus aureus ([1]; ATCC25923, 16 h): 10 µM (≈ 17.1 µg/mL) | Minimum inhibitory concentration (MIC90) Escherichia coli ([2]; ATCC 25922, 16 h): 20 µM (≈ 34.2 µg/mL) | Minimum inhibitory concentration (MIC90) Pseudomonas aeruginosa ([3]; ATCC27853, 16 h): 20 µM (≈ 34.2 µg/mL) | Minimum bactericidal concentration (MBC99.9) Staphylococcus aureus ([4]; ATCC25923, 24 h): 10 µM (≈ 17.1 µg/mL) | Minimum bactericidal concentration (MBC99.9) Escherichia coli ([5]; ATCC 25922, 24 h): 20 µM (≈ 34.2 µg/mL) | Minimum bactericidal concentration (MBC99.9) Pseudomonas aeruginosa ([6]; ATCC27853, 24 h): 20 µM (≈ 34.2 µg/mL)

KWLRRPWRRWR-NH2 [peptide 2, KWLRRPWRRWR]
Minimum inhibitory concentration (MIC90) Staphylococcus aureus [1, 7]: 2.5 µM | Minimum inhibitory concentration (MIC90) Escherichia coli [2, 7]: 2.5 µM | Minimum inhibitory concentration (MIC90) Pseudomonas aeruginosa [3, 7]: 5 µM | Minimum bactericidal concentration (MBC99.9) Staphylococcus aureus [4, 8]: 5 µM | Minimum bactericidal concentration (MBC99.9) Escherichia coli [5, 8]: 10 µM | Minimum bactericidal concentration (MBC99.9) Pseudomonas aeruginosa [6, 8]: 20 µM | Hemolysis, comparison in words (human red blood cells; comparison among the peptides of Table 4): the lowest

CC(C)C[C@H](NC(=O)[C@H](Cc1c[nH]c2ccccc12)NC(=O)[C@@H](N)CCCCN)C(=O)N[C@@H](CCCNC(=N)N)C(=O)N(C)[C@@H](CCCNC(=N)N)C(=O)N[C@H](C(=O)N[C@@H](Cc1c[nH]c2ccccc12)C(=O)N[C@@H](CCCNC(=N)N)C(=O)N[C@@H](Cc1c[nH]c2ccccc12)C(=O)N[C@@H](Cc1c[nH]c2ccccc12)C(=O)N[C@@H](CCCNC(=N)N)C(N)=O)C(C)C [peptide 5, KWLRMeRVWRWWR] (H-KWLR[NMeR]VWRWWR-NH2)
Hemolysis (%) (human red blood cells; red cells of human, 1 h): 44.9%

KWLRWVRRRWW-NH2 [peptide 3, KWLRWVRRRWW]
Minimum inhibitory concentration (MIC90) Staphylococcus aureus ([1]; ATCC25923, 16 h): 2.5 µM | Minimum inhibitory concentration (MIC90) Escherichia coli ([2]; ATCC 25922, 16 h): 2.5 µM | Minimum inhibitory concentration (MIC90) Pseudomonas aeruginosa ([3]; ATCC27853, 16 h): 5 µM | Minimum bactericidal concentration (MBC99.9) Staphylococcus aureus ([4]; ATCC25923, 24 h): 5 µM | Minimum bactericidal concentration (MBC99.9) Escherichia coli ([5]; ATCC 25922, 24 h): 10 µM | Minimum bactericidal concentration (MBC99.9) Pseudomonas aeruginosa ([6]; ATCC27853, 24 h): 20 µM | Hemolysis, comparison in words (human red blood cells): the lowest | Hemolysis (%) (human red blood cells; red cells of human, 1 h): 3.4%

CC(C)C[C@H](NC(=O)[C@H](Cc1c[nH]c2ccccc12)NC(=O)[C@@H](N)CCCCN)C(=O)N[C@@H](CCCNC(=N)N)C(=O)N[C@@H](CCCNC(=N)N)C(=O)N[C@H](C(=O)N(C)[C@@H](Cc1c[nH]c2ccccc12)C(=O)N[C@@H](CCCNC(=N)N)C(=O)N[C@@H](Cc1c[nH]c2ccccc12)C(=O)N[C@@H](Cc1c[nH]c2ccccc12)C(=O)N[C@@H](CCCNC(=N)N)C(N)=O)C(C)C [peptide 1, KWLRRVMeWRWWR] (H-KWLRRV[NMeW]RWWR-NH2)
Minimum inhibitory concentration (MIC90) Staphylococcus aureus ([1]; ATCC25923, 16 h): 5 µM (≈ 8.71 µg/mL) | Minimum inhibitory concentration (MIC90) Escherichia coli ([2]; ATCC 25922, 16 h): 5 µM (≈ 8.71 µg/mL) | Minimum inhibitory concentration (MIC90) Pseudomonas aeruginosa ([3]; ATCC27853, 16 h): 10 µM (≈ 17.4 µg/mL) | Minimum bactericidal concentration (MBC99.9) Staphylococcus aureus ([4]; ATCC25923, 24 h): 40 µM (≈ 69.6 µg/mL) | Minimum bactericidal concentration (MBC99.9) Escherichia coli ([5]; ATCC 25922, 24 h): 20 µM (≈ 34.8 µg/mL) | Minimum bactericidal concentration (MBC99.9) Pseudomonas aeruginosa ([6]; ATCC27853, 24 h): 10 µM (≈ 17.4 µg/mL) | Hemolysis, comparison in words (human red blood cells): significantly lower than the peptide 5 | Hemolysis (%) (human red blood cells; red cells of human, 1 h): 20.1%
